Values quoted from earlier work, collected in patent US9884129B2, “Release of agents from cells” (The Brigham and Women s Hospital, Inc., priority 2009, dated 2018).

System: tumor
Details: with neural stem cells modified to produce cytosine deaminase; systemic prodrug

For `Nc1nc(=O)[nH]cc1F` [5-fluorocytosine], the “reduction in tumor mass” value is given as 80%.
